For 42 compounds, emission maximum results are on record in the Deep4Chem optical property database.

A short description of the data set: solvent given as SMILES.

Each structure is given as a SMILES string.

With `CCCCCCCCCCC1(CCCCCCCCCC)c2cc(-c3nc4ccccc4s3)ccc2-c2ccc(N3C(=O)c4ccc5c6ccc7c8c(ccc(c9ccc(c4c59)C3=O)c86)C(=O)N(c3ccc4c(c3)C(CCCCCCCCCC)(CCCCCCCCCC)c3cc(-c5nc6ccccc6s5)ccc3-4)C7=O)cc21`, the emission maximum reads like this: (in Cc1ccccc1) 536 nm; (in ClCCl) 533 nm.

`C(=C\c1cccnc1)/c1ccc(Nc2ccccc2)cc1` came in with an emission maximum (in CC#N) of 456 nm and an emission maximum (in CCCCCC) of 385 nm.

In turn, `CCCCN1C(=O)C2=C(c3ccc(Br)cc3)[N-]C(=O)C2=C1c1ccc(Br)cc1` returned an emission maximum (in ClCCl) of 613 nm.

Compound `CC[n+]1c(-c2ccccc2)c2cc(N)ccc2c2ccc(-n3cccc3)cc21` gave an emission maximum (in O) of 592 nm.

`C(#Cc1ccccc1C#Cc1ccccc1)c1ccccc1` showed an emission maximum (in CC#N) of 360 nm.

Where the note is “in ClCCl”, `Cc1cc(C)c(C2=C3C=C(/C=C/C(=O)OCc4ccccc4)C=[N+]3[B-](F)(F)n3cccc32)c(C)c1` yielded an emission maximum of 568 nm.

In turn, `CCOC(=O)c1ccc(C2=CC3=c4cc(-c5ccc(C(=O)OCC)cc5)c5nc(C(F)(F)C(F)(F)C(F)(F)F)nc6c(-c7ccc(C(=O)OCC)cc7)cc(c4c65)C4=CC(c5ccc(C(=O)OCC)cc5)=C5N=C(C(F)(F)C(F)(F)C(F)(F)F)N=C2C5C43)cc1` (stereo unspecified) yielded an emission maximum (in C1CCOC1) of 523 nm.

With `CCCn1c(-c2cc(-c3nc4ccccc4n3CCC)cc(-c3nc4ccccc4n3CCC)c2)nc2ccccc21`, under “in CS(C)=O”, the emission maximum turned out to be 381 nm.

`N#Cc1ccc2nc3c(=O)[nH]c(=O)[nH]c3nc2c1`: the emission maximum (in ClCCCl) amounted to 430 nm.

`Cc1cc(-c2nc(-c3ccccc3)nc(-c3ccccc3)n2)c(C)cc1-c1ccc2c(c1)C1(c3ccccc3-c3ccccc31)c1ccccc1N2c1ccccc1` came in with an emission maximum (in c1cc(-c2cccc(-n3c4ccccc4c4ccccc43)c2)cc(-n2c3ccccc3c3ccccc32)c1) of 446 nm.

Where the note is “in ClCCl”, `CCCCCCCCOc1cc(/C=C/c2cc(OCCCCCCCC)c(/C=C/c3cc(OCCCCCCCC)c(/C=C/c4ccncc4)cc3OCCCCCCCC)cc2OCCCCCCCC)c(OCCCCCCCC)cc1/C=C/c1ccncc1` displayed an emission maximum of 570 nm.

In the case of `CCN(CC)c1ccc(/C=C2\CC/C(=C\c3ccc(N(c4ccc(/C=C5\CC/C(=C\c6ccc(N(CC)CC)cc6)C5=C(C#N)C#N)cc4)c4ccc(/C=C5\CC/C(=C\c6ccc(N(CC)CC)cc6)C5=C(C#N)C#N)cc4)cc3)C2=C(C#N)C#N)cc1`, the emission maximum (in CN(C)C=O) was 720 nm.

As to `F[B-]1(F)n2ccnc2-c2cccc[n+]21`, the emission maximum reads like this: (in C1CCCCC1) 338 nm; (in C1CCOC1) 353 nm; (in C1COCCO1) 352 nm; (in CC#N) 359 nm; (in CCCCCC) 337 nm; (in CO) 362 nm. For the setting “in ClC(Cl)Cl”, this compound registered an emission maximum of 356 nm.

`CCOC(=O)/C(C#N)=C\c1ccc2c(c1)c1ccccc1n2-c1ccc(OC)cc1`: the emission maximum is, setting by setting: (in C1CCOC1) 460 nm; (in CC#N) 522 nm; (in CC(C)=O) 508 nm; (in CCOC(C)=O) 479 nm; (in CO) 532 nm; (in CS(C)=O) 542 nm. The compound further gave an emission maximum (in Cc1ccccc1) of 455 nm and an emission maximum (in ClC(Cl)Cl) of 486 nm.

With `c1ccc(-c2nc(-c3ccccc3)nc(-c3cc(-n4c5ccccc5c5ncccc54)c(-n4c5ccccc5c5ccccc54)c(-n4c5ccccc5c5ncccc54)c3)n2)cc1`, the emission maximum is given as 525.35 nm (in CC#N); 446.05 nm (in CCCCCC); 464.88 nm (in Cc1ccccc1); 502.79 nm (in ClCCl); 455.49 nm (in O=P(c1ccccc1)(c1ccccc1)c1ccccc1Oc1ccccc1P(=O)(c1ccccc1)c1ccccc1).

Compound `CC(C)(C)c1ccc2cc3c4cccc5cccc(c6cc(C(C)(C)C)cc(c2c1)c63)c54` showed an emission maximum (in CC1CCCCC1) of 445 nm.

In the case of `N#Cc1ccc2[nH]ccc2c1`, the emission maximum is, setting by setting: (in C1CCOC1) 349 nm; (in C1COCCO1) 348 nm; (in CC#N) 362 nm; (in CC(C)O) 362 nm; (in CCO) 364 nm; (in CO) 367 nm. In addition, the emission maximum is, setting by setting: (in CS(C)=O) 371 nm; (in O) 390 nm; (in OCC(F)(F)F) 374 nm.

For the compound `O=c1[nH]c(=O)n([C@@H]2O[C@H](CO)[C@@H](O)[C@H]2O)c2ccsc12`, the emission maximum is 344 nm (in CC#N), 345 nm (in CCOC(C)=O), 350 nm (in CO) and 351 nm (in O).

For `CCCCCCCCOC(=O)c1cc2ccc3ccccc3c2c(C#N)c1N`, where the note is “in Cc1ccccc1”, the emission maximum worked out at 467 nm.

Regarding `c1ccc2c(c1)ncc1ccc3cnc4ccccc4c3c12`, for the setting “in CC#N”, the emission maximum was found to be 408 nm.

For `O=Cc1ccc(C#CC(C#Cc2ccc(C=O)o2)=Cc2ccc(C=C(C#Cc3ccc(C=O)o3)C#Cc3ccc(C=O)o3)s2)o1`, where the note is “in ClC(Cl)Cl”, the emission maximum was 577 nm.

Compound `O=S1(=O)C(c2ccsc2)=C(c2ccsc2)c2ccccc21` had an emission maximum (in C1CCOC1) of 433 nm.

With `CCC1(CC)c2cc(C=C(C#N)C#N)ccc2-c2ccc(N(C)C)cc21`, the emission maximum (in C1CCCCC1) was found to be 528 nm; the emission maximum (in CC#N) turned out to be 688 nm; the emission maximum (in CCO) is 677 nm; the emission maximum (in CCOCC) turned out to be 579 nm; the emission maximum (in CS(C)=O) turned out to be 711 nm; the emission maximum (in ClCCl) is listed as 631 nm. The emission maximum (in c1ccccc1) stood at 560 nm.

In the case of `O=c1c2cc(F)c(N3CCOCC3)cc2oc2cc(N3CCOCC3)c(F)cc12`, under “in CCO”, the emission maximum turned out to be 448 nm.

On to `CCN(CC)c1ccc2c(C#N)c(/C=C(\C#N)c3nc4ccccc4s3)c(=O)oc2c1`, for which the emission maximum reads like this: (in C1COCCO1) 647 nm; (in CC#N) 679 nm; (in CCO) 692 nm; (in CCOC(C)=O) 664 nm; (in CO) 701 nm; (in Cc1ccccc1) 637 nm. Where the note is “in ClCCl”, this compound had an emission maximum of 666 nm.

For the setting “in Cc1ccccc1”, `CC(C)[Si](C#Cc1c2ccccc2c(C#Cc2c3ccccc3c(C#Cc3c4ccccc4c(C#Cc4c5ccccc5c(C#Cc5c6ccccc6c(C#C[Si](C(C)C)(C(C)C)C(C)C)c6ccccc56)c5ccccc45)c4ccccc34)c3ccccc23)c2ccccc12)(C(C)C)C(C)C` came in with an emission maximum of 623 nm.

As for `CCC1(CC)c2cc(B(c3c(C)cc(C)cc3C)c3c(C)cc(C)cc3C)ccc2-c2ccc(N(c3ccccc3)c3ccccc3)cc21`, the emission maximum (in C1CCOC1) was 482 nm; the emission maximum (in CC#N) was 531 nm; the emission maximum (in CC(C)=O) is recorded as 499 nm; the emission maximum (in CCCCCC) stood at 423 nm; the emission maximum (in CN(C)C=O) is listed as 532 nm; the emission maximum (in Cc1ccccc1) turned out to be 448 nm. Under “in ClC(Cl)Cl”, the emission maximum was 461 nm.

As for `CC(C)[Si](C#Cc1c2ccccc2c(C#C[Si](C(C)C)(C(C)C)C(C)C)c2nc3ccccc3nc12)(C(C)C)C(C)C`, the emission maximum was found to be 577 nm (in CCCCCC) and 609 nm (in ClCCl).

For `COc1cc2cc(C#N)c3ccc4ccccc4c3c2cc1OC`, for the setting “in ClC(Cl)Cl”, the emission maximum is listed as 399 nm.

`O=P1(c2ccccc2)C(c2ccc(C(F)(F)F)cc2)=Cc2cc3ccccc3cc21` (stereo unspecified) registered an emission maximum (in ClCCl) of 425 nm.

In the case of `c1ccc2c(c1)c1ccccc1n2-c1ccc2c(c1)c1ccccc1n2-c1cc2c3ccccc3n3c4ccccc4c(c1)c23`, the emission maximum runs as follows: (in C1CCCCC1) 391.83 nm; (in C1CCOC1) 402.09 nm; (in Cc1ccccc1) 400 nm.

For the setting “in ClCCl”, `O=S1(=O)Nc2ccc3c(c2-c2ccccc21)-c1ccccc1S(=O)(=O)N3` returned an emission maximum of 425 nm.

Turning to `Cc1cc(-n2c3ccccc3c3ccccc32)ccc1-c1ccc(S(=O)(=O)c2ccccc2)cc1C`, the emission maximum reads like this: (in C1CCOC1) 401.77 nm; (in CC#N) 450.48 nm; (in Cc1ccccc1) 349 nm; (in ClCCl) 419.86 nm.

Turning to `CCN(CC)c1ccc2c(-c3ccccc3C(=O)[O-])c3ccc(=[N+](CC)CC)cc-3oc2c1`, the emission maximum turned out to be 579 nm (in CC#N), 571 nm (in CCO), 588 nm (in CN(C)C=O) and 580 nm (in O).

As to `CCCC1(CCC)c2cc(-c3ccc(OC)cc3)ccc2-c2ccc(-c3ccc4c(c3)C(CCC)(CCC)c3cc(-c5ccc(OC)cc5)ccc3-4)cc21`, the emission maximum (in C1CCCCC1) stood at 395 nm.

Regarding `c1cc2ccc3ccc(-n4c5ccccc5c5ccccc54)c4ccc(c1)c2c34`, the emission maximum is 407 nm (in CCCCCC), 398 nm (in CCO), 398 nm (in CCOC(C)=O) and 399 nm (in ClCCl).

Compound `CC(=O)c1nc(-c2ccc(N(c3ccccc3)c3ccccc3)cc2)oc1C` registered an emission maximum (in CC#N) of 452 nm; an emission maximum (in CCCCCC) of 385 nm; an emission maximum (in CCO) of 468 nm; an emission maximum (in CCOC(C)=O) of 419 nm; an emission maximum (in CCOCC) of 408 nm; an emission maximum (in ClCCl) of 448 nm.

Turning to `c1ccc(-c2ccc(-c3ccc4c(c3)CCCO4)cc2)cc1`, for the setting “in C1CCCCC1”, the emission maximum was found to be 359 nm.

The compound `CC(C)(C)c1ccc2c(c1)oc1nc3oc4ccc(-n5c6ccccc6c6ccccc65)cc4c3cc12` registered an emission maximum (in ClC(Cl)Cl) of 417 nm.

Turning to `Cc1cc(C)n2c1C=[N+]1[N+](=C3C=NC=CN3[B-]1(F)F)[B-]2(F)F`, the emission maximum (in ClCCl) is given as 490 nm.

In the case of `NS(=O)(=O)c1ccc(N2N=C(c3ccc(O)cc3)CC2c2ccc([N+](=O)[O-])cc2)cc1` (stereo unspecified), the emission maximum stood at 420 nm (in C1CCOC1); 417 nm (in C1COCCO1); 419 nm (in CC#N); 421 nm (in CC(C)O); 422 nm (in CCO); 417 nm (in CCOC(C)=O). This compound also returned an emission maximum (in CN(C)C=O) of 422 nm, an emission maximum (in CO) of 434 nm, an emission maximum (in CS(C)=O) of 425 nm and an emission maximum (in O) of 451 nm.

With `Nc1cccc2c1ccc1[n+]2[B-](F)(F)n2c-1cc1c3ccccc3c3ccccc3c12`, the emission maximum (in ClCCl) turned out to be 580 nm.
